# Data from ChEMBL document CHEMBL1828558, “Discovery of (+)-N-(3-aminopropyl)-N-[1-(5-benzyl-3-methyl-4-oxo-[1,2]thiazolo[5,4-d]pyrimidin-6-yl)-2-methylpropyl]-4-methylbenzamide (AZD4877), a kinesin spindle protein inhibitor and potential anticancer agent” (J Med Chem, 2011).
# How the values were obtained:
# [1] = target: T1, Kinesin-like protein KIF11 (Homo sapiens, UniProt P52732); test: Inhibition of human recombinant C-terminal His6-tagged KSP ATPase activity after 1 hr by malachite green assay
# T1 sequence (P52732 whole entry): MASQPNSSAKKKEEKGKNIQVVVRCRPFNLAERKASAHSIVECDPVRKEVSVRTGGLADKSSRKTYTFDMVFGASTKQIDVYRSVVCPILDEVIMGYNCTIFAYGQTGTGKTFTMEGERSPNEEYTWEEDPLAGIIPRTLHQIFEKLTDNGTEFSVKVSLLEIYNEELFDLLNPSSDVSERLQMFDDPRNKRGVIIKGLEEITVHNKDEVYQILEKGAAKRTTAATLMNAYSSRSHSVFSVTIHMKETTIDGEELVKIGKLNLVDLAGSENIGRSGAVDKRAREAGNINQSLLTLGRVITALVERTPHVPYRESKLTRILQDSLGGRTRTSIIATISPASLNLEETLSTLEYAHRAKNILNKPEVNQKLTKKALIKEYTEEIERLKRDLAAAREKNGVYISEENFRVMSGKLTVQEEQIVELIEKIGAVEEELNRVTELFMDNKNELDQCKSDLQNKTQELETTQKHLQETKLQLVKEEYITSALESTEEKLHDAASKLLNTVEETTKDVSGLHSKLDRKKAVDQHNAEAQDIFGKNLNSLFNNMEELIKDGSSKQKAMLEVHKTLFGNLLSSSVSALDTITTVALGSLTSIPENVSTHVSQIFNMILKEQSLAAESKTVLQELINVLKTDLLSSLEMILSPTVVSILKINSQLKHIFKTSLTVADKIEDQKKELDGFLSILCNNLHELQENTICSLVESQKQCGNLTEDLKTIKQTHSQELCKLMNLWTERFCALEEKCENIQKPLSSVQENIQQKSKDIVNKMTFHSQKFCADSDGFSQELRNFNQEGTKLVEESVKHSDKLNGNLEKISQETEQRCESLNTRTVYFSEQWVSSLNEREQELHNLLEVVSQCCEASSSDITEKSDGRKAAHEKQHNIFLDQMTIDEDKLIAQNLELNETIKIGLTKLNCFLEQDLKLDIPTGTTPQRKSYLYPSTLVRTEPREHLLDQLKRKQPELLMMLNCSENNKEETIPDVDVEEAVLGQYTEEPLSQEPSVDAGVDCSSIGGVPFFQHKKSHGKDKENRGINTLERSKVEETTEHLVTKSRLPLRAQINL
# COLO 205 = test: Anticancer activity against human COLO205 cells after 72 hrs by MTS/PMS assay; type: functional, cell-based
Compound,IC50 [1],"IC50 (COLO 205; Homo sapiens, COLO 205, 72 h)",IC50 (COLO 205; colo 205)
CCC(c1nc2ccsc2c(=O)n1Cc1ccccc1)N(CCCN)C(=O)C1CCCC1 (configuration not stated),4.22 µM,–,–
CCC(c1nc2ccsc2c(=O)n1Cc1ccccc1)N(CCCN)C(=O)c1sccc1C (configuration not stated),0.41 µM,–,–
Cc1ccc(C(=O)N(CCCN)C(c2nc3snc(C)c3c(=O)n2Cc2ccccc2)C(C)C)cc1 (stereo in doubt; 65) [AZD-4877],–,0.002 µM,–
CCC(c1nc2ccsc2c(=O)n1Cc1ccccc1)N(CCCN)C(=O)c1ccno1 (configuration not stated),1.39 µM,–,–
CCCCC(=O)N(CCCN)C(CC)c1nc2ccsc2c(=O)n1Cc1ccccc1 (configuration not stated),5.52 µM,–,–
CCC(c1nc2ccsc2c(=O)n1Cc1ccccc1)N(CCCNS(C)(=O)=O)C(=O)c1ccc(C)cc1 (configuration not stated),5.99 µM,–,–
CCC(c1nc2ccsc2c(=O)n1Cc1ccccc1)N(CCCN)C(=O)c1ccc2c(c1)OCO2 (configuration not stated),0.15 µM,0.26 µM,–
CCC(c1nc2ccsc2c(=O)n1Cc1ccccc1)N(CCCN)C(=O)c1ccccc1 (configuration not stated),0.2 µM,0.68 µM,–
CCC(c1nc2ccsc2c(=O)n1Cc1ccccc1)N(CCCN)C(=O)c1cccc(C)c1 (configuration not stated),0.09 µM,0.14 µM,–
CCC(c1nc2ccsc2c(=O)n1Cc1ccccc1)N(CCCN)C(=O)c1ccc(C(C)C)cc1 (configuration not stated),0.94 µM,3.3 µM,–
CCC(c1nc2ccsc2c(=O)n1Cc1ccccc1)N(CCCN)C(=O)C1COc2ccccc2O1 (configuration not stated),2.31 µM,–,–
CCC(c1nc2ccsc2c(=O)n1Cc1ccccc1)N(CCCN)C(=O)c1ccc(C(F)(F)F)cc1 (configuration not stated),0.21 µM,0.51 µM,–
CCC(c1nc2c(C)nsc2c(=O)n1Cc1ccccc1)N(CCCN)C(=O)c1ccc(C)cc1 (configuration not stated),0.005 µM,0.045 µM,–
CCC(c1nc2sc(Cl)c(Br)c2c(=O)n1Cc1ccccc1)N(CCCN)C(=O)c1ccc(C)cc1 (configuration not stated),0.161 µM,0.675 µM,–
CCC(c1nc2ncccc2c(=O)n1Cc1ccccc1)N(CCCN)C(=O)c1ccc(C)cc1 (configuration not stated),0.323 µM,1.4 µM,–
CCC(c1nc2ccsc2c(=O)n1Cc1ccccc1)N(CCCN)C(=O)C1CC1 (configuration not stated),6.7 µM,–,–
CCC(c1nc2ccsc2c(=O)n1Cc1ccccc1)N(CCCN)C(=O)c1ccc(C#N)cc1 (configuration not stated),2.7 µM,–,–
CCC(c1nc2ccsc2c(=O)n1Cc1ccccc1)N(CCCN)C(=O)c1cc2ccccc2s1 (configuration not stated),0.04 µM,–,–
CCC(c1nc2ccsc2c(=O)n1Cc1ccccc1)N(CCCN)C(=O)c1ccc(Br)cc1 (configuration not stated),0.03 µM,0.16 µM,–
CCC(c1nc2ccsc2c(=O)n1Cc1ccncc1)N(CCCN)C(=O)c1ccc(C)cc1 (configuration not stated),5.31 µM,–,–

Compound,IC50 [1],"IC50 (COLO 205; Homo sapiens, COLO 205, 72 h)",IC50 (COLO 205; colo 205)
"CCC(c1nc2snc(C)c2c(=O)n1Cc1ccccc1)N(CCCN)C(=O)c1ccc(C)cc1 (single isomer, unassigned; (-))",0.051 µM,–,–
CCC(c1nc2ccsc2c(=O)n1Cc1ccccc1)N(CCCN)C(=O)C1CCC(OC)CC1 (configuration not stated),9 µM,–,–
CCC(c1nc2ccsc2c(=O)n1Cc1ccc(C)cc1)N(CCCN)C(=O)c1ccc(C)cc1 (configuration not stated),0.13 µM,0.65 µM,–
CCC(c1nc2ccsc2c(=O)n1Cc1ccccc1)N(CCCN)C(=O)c1ccccc1C (configuration not stated),1.06 µM,–,–
CCC(NC(=O)c1ccc(C)cc1)c1nc2ccsc2c(=O)n1Cc1ccccc1 (configuration not stated),9 µM,–,–
CCC(c1nc2ccsc2c(=O)n1Cc1ccccc1)N(CCCN)C(=O)c1ccc(OC)cc1 (configuration not stated),0.21 µM,0.64 µM,–
CCC(c1nc2ccsc2c(=O)n1Cc1ccccc1)N(CC1CNCCO1)C(=O)c1ccc(C)cc1 (configuration not stated),0.31 µM,0.72 µM,–
"CCC(c1nc2sccc2c(=O)n1Cc1ccccc1)N(CCCN)C(=O)c1ccc(C)cc1 (single isomer, unassigned; (+))",0.003 µM,–,0.008 µM
CCC(c1nc2ccoc2c(=O)n1Cc1ccccc1)N(CCCN)C(=O)c1ccc(C)cc1 (configuration not stated),0.013 µM,0.174 µM,–
CCC(c1nc2ccsc2c(=O)n1Cc1cscn1)N(CCCN)C(=O)c1ccc(C)cc1 (configuration not stated),9.09 µM,–,–
CCC(c1nc2ccsc2c(=O)n1CC1CC1)N(CCCN)C(=O)c1ccc(C)cc1 (configuration not stated),0.76 µM,3.08 µM,–
"Cc1ccc(C(=O)N(CCCN)C(c2nc3snc(C)c3c(=O)n2Cc2ccccc2)C(C)C)cc1 (single isomer, unassigned; (-)) [AZD-4877]",0.429 µM,–,–
CCC(c1nc2ccsc2c(=O)n1Cc1ccccc1)N(CCCN)C(=O)c1ccccc1Cl (configuration not stated),0.61 µM,0.86 µM,–
"Cc1ccc(C(=O)N(CCCN)C(c2nc3snc(C)c3c(=O)n2Cc2cccc(F)c2)C(C)C)cc1 (single isomer, unassigned; (+))",–,0.005 µM,–
CCC(c1nc2ccsc2c(=O)n1Cc1ccccc1F)N(CCCN)C(=O)c1ccc(C)cc1 (configuration not stated),0.14 µM,1.36 µM,–
CCC(c1nc2snc(C)c2c(=O)n1Cc1ccc(F)cc1)N(CCCN)C(=O)c1ccc(C)cc1 (configuration not stated),–,0.105 µM,–
CCC(c1nc2ccsc2c(=O)n1Cc1ccccc1)N(CCCN)C(=O)c1cccc(C(F)(F)F)c1 (configuration not stated),0.31 µM,0.58 µM,–
CCC(c1nc2ccsc2c(=O)n1Cc1ccc(Cl)cc1)N(CCCN)C(=O)c1ccc(C)cc1 (configuration not stated),0.21 µM,1.56 µM,–
CCC(c1nc2ccsc2c(=O)n1Cc1ccccc1)N(CCCN)C(=O)c1ccc(F)cc1 (configuration not stated),0.14 µM,0.57 µM,–
CCC(c1nc2ccsc2c(=O)n1Cc1ccccc1)N(CCCN)C(=O)c1ccc(C)nc1 (configuration not stated),0.98 µM,3.69 µM,–

Compound,IC50 [1],"IC50 (COLO 205; Homo sapiens, COLO 205, 72 h)",IC50 (COLO 205; colo 205)
CCC(c1nc2ccsc2c(=O)[nH]1)N(CCCN)C(=O)c1ccc(C)cc1 (configuration not stated),9 µM,–,–
CCC(c1nc2ccsc2c(=O)n1Cc1ccccc1)N(CCCN)C(=O)c1ccc(C)cc1 (configuration not stated),0.01 µM,0.1 µM,–
CCC(c1nc2snc(C)c2c(=O)n1Cc1ccccc1)N(CCCN)C(=O)c1ccc(Br)cc1 (configuration not stated),–,0.014 µM,–
CCC(c1nc2snc(C)c2c(=O)n1Cc1ccccc1)N(CCCN)C(=O)c1ccc(C)c(F)c1 (configuration not stated),–,0.012 µM,–
"CCC(c1nc2snc(C)c2c(=O)n1Cc1cccc(F)c1)N(CCCN)C(=O)c1ccc(C)cc1 (single isomer, unassigned; (+))",–,0.013 µM,–
CCC(c1nc2ccsc2c(=O)n1Cc1cc(C)on1)N(CCCN)C(=O)c1ccc(C)cc1 (configuration not stated),0.63 µM,1.71 µM,–
CCC(c1nc2ccsc2c(=O)n1Cc1ccccc1)N(CCCNC(C)=O)C(=O)c1ccc(C)cc1 (configuration not stated),2.92 µM,–,–
CCC(c1nc2ccsc2c(=O)n1Cc1ccccc1)N(CCCN)C(=O)CC(C)C (configuration not stated),4.54 µM,–,–
"CCC(c1nc2sccc2c(=O)n1Cc1ccccc1)N(CCCN)C(=O)c1ccc(C)cc1 (single isomer, unassigned; (-))",1.9 µM,–,–
"Cc1ccc(C(=O)N(CCCN)C(c2nc3snc(C)c3c(=O)n2Cc2ccccc2)C(C)C)cc1F (single isomer, unassigned; (+))",–,0.01 µM,–
CCC(c1nc2nccnc2c(=O)n1Cc1ccccc1)N(CCCN)C(=O)c1ccc(C)cc1 (configuration not stated),5.46 µM,–,–
CCC(c1nc2ccsc2c(=O)n1Cc1ccccc1)N(CCCN)C(=O)c1ccc(OC(F)(F)F)cc1 (configuration not stated),2.46 µM,–,–
Cc1nsc2nc(C(C(C)C)N(CCCN)C(=O)c3ccc(Br)cc3)n(Cc3ccccc3)c(=O)c12 (configuration not stated),–,0.006 µM,–
CCC(c1nc2ccsc2c(=O)n1Cc1ccccc1)N(CCCN)C(=O)c1ccc(C(=O)OC)cc1 (configuration not stated),5.96 µM,–,–
CCC(c1nc2ccsc2c(=O)n1Cc1ccccc1)N(CCCNC(=O)OC(C)(C)C)C(=O)c1ccc(C)cc1 (configuration not stated),10 µM,–,–
CCC(c1nc2ccsc2c(=O)n1Cc1cccnc1)N(CCCN)C(=O)c1ccc(C)cc1 (configuration not stated),3.8 µM,–,–
CCC(c1nc2ccsc2c(=O)n1Cc1ccccn1)N(CCCN)C(=O)c1ccc(C)cc1 (configuration not stated),3.5 µM,–,–
Cc1ccc(C(=O)N(CCCN)C(c2nc3snc(C)c3c(=O)n2Cc2ccc(F)cc2)C(C)C)cc1 (configuration not stated),–,0.019 µM,–
CCC(c1nc2ccsc2c(=O)n1Cc1ccccc1)N(CCCN)C(=O)c1ccc2nccnc2c1 (configuration not stated),3.21 µM,–,–
